Measurements from ChEMBL document CHEMBL1201862, “PubChem BioAssay data set” (2004).
Active and inactive are the calls of the source.

Key:
[1] = HepG2 cell cytotoxicity, dose response, cytotoxicity control for non-replicating M. tuberculosis project (AID 489018); format: functional; details: Mycobacterium tuberculosis
[2] = cells; format: functional
[3] = THP-1 cell cytotoxicity, dose response, cytotoxicity control for non-replicating M. tuberculosis project (AID 489025); format: functional
[4] = Vero E6 cell cytotoxicity, dose response, cytotoxicity control for non-replicating M. tuberculosis project, secondary assay (AID 492998); format: functional, VeroE6; details: Vero C1008
[5] = Luminescence Cell-Based Dose Retest to Confirm Inhibitors of Cancer Stem Cells. [Related pubchem assays (depositor defined):AID2717, AID2721]; format: functional; details: Homo sapiens
[6] = target: T1, Ubiquitin-conjugating enzyme E2 N (Homo sapiens, UniProt P61088); format: functional;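 note: Dose-response confirmation in a TR-FRET assay detecting UBC13-driven polyubiquitin chain formation, inhibition measured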
T1 sequence (P61088 whole entry): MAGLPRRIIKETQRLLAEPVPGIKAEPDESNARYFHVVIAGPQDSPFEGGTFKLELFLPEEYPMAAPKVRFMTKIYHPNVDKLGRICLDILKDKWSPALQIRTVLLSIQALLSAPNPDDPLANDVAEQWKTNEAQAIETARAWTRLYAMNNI

[7] = target: Cytochrome P450 2C9 (Homo sapiens, UniProt P11712)
Chain of Cytochrome P450 2C9 (P11712 whole entry, the tested form may be a part): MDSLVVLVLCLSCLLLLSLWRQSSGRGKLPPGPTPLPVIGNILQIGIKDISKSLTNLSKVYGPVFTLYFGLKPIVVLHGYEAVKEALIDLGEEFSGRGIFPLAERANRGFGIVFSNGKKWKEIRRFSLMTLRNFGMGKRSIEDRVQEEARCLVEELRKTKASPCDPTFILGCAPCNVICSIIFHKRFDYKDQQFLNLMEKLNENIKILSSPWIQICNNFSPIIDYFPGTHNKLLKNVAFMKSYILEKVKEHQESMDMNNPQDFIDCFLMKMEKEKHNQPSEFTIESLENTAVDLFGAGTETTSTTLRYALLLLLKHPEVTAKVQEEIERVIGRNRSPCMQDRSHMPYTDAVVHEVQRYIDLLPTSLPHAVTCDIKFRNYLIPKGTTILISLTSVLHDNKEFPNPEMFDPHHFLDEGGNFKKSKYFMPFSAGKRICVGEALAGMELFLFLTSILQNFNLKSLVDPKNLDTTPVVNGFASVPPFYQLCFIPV

[8] = target: T2, Type-1 angiotensin II receptor (Homo sapiens, UniProt P30556); experiment: AT1 receptor agonists, dose response, selectivity assay for APJ receptor agonist project, cell-based, uHTS hits (AID 488865); format: functional;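 note: beta-arrestin recruitment to AT1 measured by enzyme fragment complementation luminescence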
T2 sequence (P30556 whole entry): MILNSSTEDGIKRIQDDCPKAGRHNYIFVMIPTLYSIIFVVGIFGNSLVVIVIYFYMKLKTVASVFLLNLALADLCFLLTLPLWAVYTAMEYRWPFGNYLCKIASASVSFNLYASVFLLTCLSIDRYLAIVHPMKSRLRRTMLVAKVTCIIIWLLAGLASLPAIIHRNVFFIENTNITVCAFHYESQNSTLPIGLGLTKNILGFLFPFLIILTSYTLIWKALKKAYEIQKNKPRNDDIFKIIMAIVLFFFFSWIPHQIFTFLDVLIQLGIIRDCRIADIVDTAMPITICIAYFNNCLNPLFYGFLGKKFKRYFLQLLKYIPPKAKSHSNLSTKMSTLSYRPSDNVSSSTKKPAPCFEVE

[9] = target: G-protein coupled receptor 55 (Homo sapiens, UniProt Q9Y2T6); experiment: GPR55 agonists via beta-arrestin recruitment, primary screen, imaging, U2OS cells, beta-arrestin-GFP redistribution (AID 1961); format: functional
Chain of G-protein coupled receptor 55 (Q9Y2T6 whole entry): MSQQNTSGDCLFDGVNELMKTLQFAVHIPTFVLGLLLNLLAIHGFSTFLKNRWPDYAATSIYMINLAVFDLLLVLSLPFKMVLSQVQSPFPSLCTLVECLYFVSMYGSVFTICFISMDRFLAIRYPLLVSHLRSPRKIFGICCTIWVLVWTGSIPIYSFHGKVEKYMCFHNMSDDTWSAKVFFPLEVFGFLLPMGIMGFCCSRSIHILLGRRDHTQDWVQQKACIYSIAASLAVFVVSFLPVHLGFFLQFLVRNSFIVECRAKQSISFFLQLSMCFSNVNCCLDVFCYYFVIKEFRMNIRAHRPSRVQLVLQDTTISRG

[10] = cytotoxicity toward NIH3T3 fibroblasts, dose response, counter-screen, cell-based, ATP luminescence, mouse fibroblasts (AID 2010); format: functional;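 note: cells exposed to compound for about 90 hours before reading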
[11] = test system: Vero; experiment: cells; format: functional, cell-based; details: Chlorocebus sabaeus
[12] = test system: Vero; experiment: cells; format: functional; details: Chlorocebus sabaeus
[13] = test system: HT-1080; experiment: cytotoxicity in HT1080 fibrosarcoma cells, cell-based, fluorescence readout (AID 620); format: functional; details: Homo sapiens
[14] = test system: INS1; experiment: beta cell apoptosis inhibitors, cytokine rescue, dose response, luminescence, retest (AID 449756); format: functional, cell-based; details: Rattus norvegicus;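 note: cell death triggered by IL-1 beta plus TNF-alpha plus IFN-gamma mixture; protective hits raise ATP signal compared with cytokine alone wells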
[15] = target: Luciferin 4-monooxygenase (Photinus pyralis, UniProt P08659); experiment: Counter Screen for Luciferase-based Assay Positives. [Related pubchem assays: 620, 618, 411 ]
Chain of Luciferin 4-monooxygenase (P08659 whole entry): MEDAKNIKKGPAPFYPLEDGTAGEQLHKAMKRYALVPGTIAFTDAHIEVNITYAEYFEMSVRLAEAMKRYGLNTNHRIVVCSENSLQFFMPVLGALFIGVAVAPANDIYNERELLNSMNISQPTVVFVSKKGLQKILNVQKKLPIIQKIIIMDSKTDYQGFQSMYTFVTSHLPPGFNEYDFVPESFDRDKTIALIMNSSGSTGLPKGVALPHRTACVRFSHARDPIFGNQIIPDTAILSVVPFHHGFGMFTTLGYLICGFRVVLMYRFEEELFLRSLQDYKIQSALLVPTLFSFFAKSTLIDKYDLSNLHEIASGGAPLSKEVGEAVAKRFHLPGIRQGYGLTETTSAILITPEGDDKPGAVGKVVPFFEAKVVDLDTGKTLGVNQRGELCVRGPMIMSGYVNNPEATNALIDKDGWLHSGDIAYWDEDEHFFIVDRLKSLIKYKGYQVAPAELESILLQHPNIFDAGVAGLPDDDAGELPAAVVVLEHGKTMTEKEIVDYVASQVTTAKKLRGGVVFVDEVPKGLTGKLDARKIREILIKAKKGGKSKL

[16] = inhibitors of intracellular T. cruzi replication, confirmation, NIH3T3 host cells, beta-gal luminescence (AID 2044); format: functional, cell-based;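 note: intracellular parasites grown in NIH/3T3 mouse fibroblasts as host cells; luminescent beta-galactosidase reporter signal from transgenic T. cruzi replicating inside host cells; inhibitors lower the luminescence signal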
[17] = target: NS3 (Hepatitis C virus, UniProt A3EZJ3); experiment: PubChem AID 2173; parameters: species or system Hepacivirus hominis
Chain of NS3 (A3EZJ3 whole entry): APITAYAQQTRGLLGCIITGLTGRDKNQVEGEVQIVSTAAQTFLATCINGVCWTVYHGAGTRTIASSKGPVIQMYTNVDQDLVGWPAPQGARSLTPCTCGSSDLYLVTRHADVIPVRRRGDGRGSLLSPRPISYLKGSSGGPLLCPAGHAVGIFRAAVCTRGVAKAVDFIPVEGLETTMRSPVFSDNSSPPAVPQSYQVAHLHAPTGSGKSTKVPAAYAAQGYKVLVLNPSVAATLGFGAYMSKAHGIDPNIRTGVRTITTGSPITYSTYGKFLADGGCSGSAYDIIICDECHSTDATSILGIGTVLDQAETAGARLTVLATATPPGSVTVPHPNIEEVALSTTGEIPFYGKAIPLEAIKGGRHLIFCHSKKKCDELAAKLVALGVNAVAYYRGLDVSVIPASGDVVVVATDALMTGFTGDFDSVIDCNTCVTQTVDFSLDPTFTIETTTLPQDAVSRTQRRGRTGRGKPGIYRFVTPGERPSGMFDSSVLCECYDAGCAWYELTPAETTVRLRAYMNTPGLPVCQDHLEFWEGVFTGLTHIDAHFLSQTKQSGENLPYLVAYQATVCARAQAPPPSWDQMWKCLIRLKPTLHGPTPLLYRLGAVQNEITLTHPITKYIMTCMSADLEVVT

[18] = target: Large T antigen (Simian virus 40, UniProt P03070); format: functional, Betapolyomavirus macacae;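 note: Confirmatory-stage PubChem screen for compounds that inhibit SV40 T antigen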
Chain of Large T antigen (P03070 whole entry): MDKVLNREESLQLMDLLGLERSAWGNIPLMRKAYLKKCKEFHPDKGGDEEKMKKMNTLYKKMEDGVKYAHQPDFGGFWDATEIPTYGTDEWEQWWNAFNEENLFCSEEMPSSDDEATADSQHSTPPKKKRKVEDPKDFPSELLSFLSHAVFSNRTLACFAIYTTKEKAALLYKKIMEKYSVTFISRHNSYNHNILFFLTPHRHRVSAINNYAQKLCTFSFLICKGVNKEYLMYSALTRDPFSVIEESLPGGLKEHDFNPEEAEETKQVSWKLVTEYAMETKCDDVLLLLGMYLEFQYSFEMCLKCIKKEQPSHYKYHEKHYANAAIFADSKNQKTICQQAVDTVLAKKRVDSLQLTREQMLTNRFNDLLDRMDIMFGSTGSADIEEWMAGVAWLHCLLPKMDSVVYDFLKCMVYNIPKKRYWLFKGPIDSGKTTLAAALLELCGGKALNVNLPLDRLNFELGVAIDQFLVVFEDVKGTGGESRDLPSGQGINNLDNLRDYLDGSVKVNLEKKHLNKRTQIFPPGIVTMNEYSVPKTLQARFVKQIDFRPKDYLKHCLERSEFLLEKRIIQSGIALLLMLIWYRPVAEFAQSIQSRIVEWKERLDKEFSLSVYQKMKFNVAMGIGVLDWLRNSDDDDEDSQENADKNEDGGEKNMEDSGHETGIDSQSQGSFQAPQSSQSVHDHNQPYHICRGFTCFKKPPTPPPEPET

[19] = target: DNA damage-inducible transcript 3 protein (Mus musculus, UniProt P35639); format: functional, Cricetulus griseus
Chain of DNA damage-inducible transcript 3 protein (P35639 whole entry): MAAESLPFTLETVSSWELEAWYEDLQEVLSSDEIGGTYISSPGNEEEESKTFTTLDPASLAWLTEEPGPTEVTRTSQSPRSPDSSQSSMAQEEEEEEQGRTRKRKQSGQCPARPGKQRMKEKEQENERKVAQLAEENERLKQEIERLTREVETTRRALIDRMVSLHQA

[20] = HEp-2 cell cytotoxicity, dose response, cytotoxicity control for RSV inhibitor project, HTS (AID 2410); format: functional; details: human respiratory syncytial virus
[21] = target: T3, Heat shock factor protein 1 (Mus musculus, UniProt P38532); experiment: HSF1 potentiators in luciferase reporter cells, confirmation, cell-based, NIH3T3, luminescence, dose retest (AID 435004); format: functional;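 note: stress induced by proteasome inhibitor MG132 added 30 min after compound; luciferase reporter driven by HSF1 response element in NIH3T3 cells; actives raise luminescence as potentiators of the MG132 stress response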
T3 sequence (P38532 whole entry): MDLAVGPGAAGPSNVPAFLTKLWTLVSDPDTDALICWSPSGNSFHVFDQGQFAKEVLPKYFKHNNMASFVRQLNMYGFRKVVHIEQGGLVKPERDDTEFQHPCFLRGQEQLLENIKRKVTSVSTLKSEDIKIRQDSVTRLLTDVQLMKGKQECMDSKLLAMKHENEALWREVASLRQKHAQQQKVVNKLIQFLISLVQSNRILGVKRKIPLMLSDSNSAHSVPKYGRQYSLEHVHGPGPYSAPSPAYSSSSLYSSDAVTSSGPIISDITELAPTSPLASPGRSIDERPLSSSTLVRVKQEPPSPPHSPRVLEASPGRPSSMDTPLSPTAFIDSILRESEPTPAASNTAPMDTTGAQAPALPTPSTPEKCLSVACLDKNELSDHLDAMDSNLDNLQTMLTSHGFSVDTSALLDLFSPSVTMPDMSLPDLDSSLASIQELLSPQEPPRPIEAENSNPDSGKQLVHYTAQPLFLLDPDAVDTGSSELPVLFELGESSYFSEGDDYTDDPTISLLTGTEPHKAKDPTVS

[22] = target: T4, Alkaline phosphatase, tissue-nonspecific isozyme (Homo sapiens, UniProt P05186); experiment: human TNAP enzyme inhibitors, SAR follow-up, biochemical, luminescent, dose response (AID 1056)
T4 sequence (P05186 whole entry): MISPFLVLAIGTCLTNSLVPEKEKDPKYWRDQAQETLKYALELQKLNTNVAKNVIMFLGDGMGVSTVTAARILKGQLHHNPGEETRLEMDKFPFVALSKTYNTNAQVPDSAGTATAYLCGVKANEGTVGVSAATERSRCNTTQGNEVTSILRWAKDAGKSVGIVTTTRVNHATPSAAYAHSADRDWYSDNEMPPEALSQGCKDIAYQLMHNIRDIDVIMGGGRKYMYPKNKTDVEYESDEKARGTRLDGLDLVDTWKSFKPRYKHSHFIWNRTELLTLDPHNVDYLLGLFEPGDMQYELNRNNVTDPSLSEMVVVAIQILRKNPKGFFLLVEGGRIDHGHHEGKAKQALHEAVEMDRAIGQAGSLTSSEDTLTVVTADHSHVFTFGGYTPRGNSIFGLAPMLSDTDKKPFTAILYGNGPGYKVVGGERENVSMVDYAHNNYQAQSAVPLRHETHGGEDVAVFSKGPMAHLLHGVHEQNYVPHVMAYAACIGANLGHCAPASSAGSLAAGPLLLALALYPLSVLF

[23] = target: Glyceraldehyde-3-phosphate dehydrogenase (Homo sapiens, UniProt P04406)
Chain of Glyceraldehyde-3-phosphate dehydrogenase (P04406 whole entry): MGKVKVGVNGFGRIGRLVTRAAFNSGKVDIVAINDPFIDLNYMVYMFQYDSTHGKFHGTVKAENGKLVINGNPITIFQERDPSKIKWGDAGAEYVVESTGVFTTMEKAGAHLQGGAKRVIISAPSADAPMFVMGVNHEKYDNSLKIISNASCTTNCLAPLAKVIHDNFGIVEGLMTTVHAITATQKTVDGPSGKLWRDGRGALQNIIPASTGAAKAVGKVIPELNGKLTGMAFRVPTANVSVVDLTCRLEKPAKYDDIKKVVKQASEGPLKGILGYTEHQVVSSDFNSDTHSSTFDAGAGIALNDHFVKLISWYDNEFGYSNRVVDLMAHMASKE

[24] = target: Hexokinase (Trypanosoma brucei, UniProt Q38C41); experiment: Confirmation assay for inhibitors of Trypanosoma brucei hexokinase 1-Analogue-first series. [Related pubchem assays (depositor defined):AID1430, AID1632, AID2516, AID2560, AID2579, AID2600, AID449725, AID492951]; format: functional
Chain of Hexokinase (Q38C41 whole entry): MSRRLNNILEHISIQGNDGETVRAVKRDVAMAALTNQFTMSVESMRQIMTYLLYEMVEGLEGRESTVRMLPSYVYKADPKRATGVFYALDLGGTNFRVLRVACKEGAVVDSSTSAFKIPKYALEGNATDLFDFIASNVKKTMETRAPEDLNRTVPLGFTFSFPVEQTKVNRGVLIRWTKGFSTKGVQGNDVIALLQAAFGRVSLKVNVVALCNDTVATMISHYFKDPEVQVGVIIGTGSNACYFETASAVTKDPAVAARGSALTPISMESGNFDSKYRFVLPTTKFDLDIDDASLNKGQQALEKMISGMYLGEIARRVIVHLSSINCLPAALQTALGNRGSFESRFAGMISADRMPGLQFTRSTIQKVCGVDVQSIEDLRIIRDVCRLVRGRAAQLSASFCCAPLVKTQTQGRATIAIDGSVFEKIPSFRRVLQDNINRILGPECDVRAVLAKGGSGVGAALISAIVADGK

[25] = target: X-box-binding protein 1 (Homo sapiens, UniProt P17861); format: functional, Cricetulus griseus;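 note: confirmatory dose-response counter-screen serving a CHOP assay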
Chain of X-box-binding protein 1 (P17861 whole entry): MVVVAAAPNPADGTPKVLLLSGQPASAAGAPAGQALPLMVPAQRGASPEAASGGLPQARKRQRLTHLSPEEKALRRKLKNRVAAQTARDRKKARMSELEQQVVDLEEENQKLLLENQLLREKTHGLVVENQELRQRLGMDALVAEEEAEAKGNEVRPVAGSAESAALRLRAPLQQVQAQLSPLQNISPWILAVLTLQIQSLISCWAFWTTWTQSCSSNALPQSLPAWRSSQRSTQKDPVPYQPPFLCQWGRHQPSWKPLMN

[26] = target: T5, Protein RecA (Mycobacterium tuberculosis, UniProt P9WHJ3); experiment: Fluorescence Cell-Free Homogeneous Dose Retest to Identify Inhibitors of RecA-Intein Splicing Activity. [Related pubchem assays (depositor defined):AID2097, AID2223, AID489010, AID492950]; format: functional
T5 sequence (P9WHJ3 whole entry): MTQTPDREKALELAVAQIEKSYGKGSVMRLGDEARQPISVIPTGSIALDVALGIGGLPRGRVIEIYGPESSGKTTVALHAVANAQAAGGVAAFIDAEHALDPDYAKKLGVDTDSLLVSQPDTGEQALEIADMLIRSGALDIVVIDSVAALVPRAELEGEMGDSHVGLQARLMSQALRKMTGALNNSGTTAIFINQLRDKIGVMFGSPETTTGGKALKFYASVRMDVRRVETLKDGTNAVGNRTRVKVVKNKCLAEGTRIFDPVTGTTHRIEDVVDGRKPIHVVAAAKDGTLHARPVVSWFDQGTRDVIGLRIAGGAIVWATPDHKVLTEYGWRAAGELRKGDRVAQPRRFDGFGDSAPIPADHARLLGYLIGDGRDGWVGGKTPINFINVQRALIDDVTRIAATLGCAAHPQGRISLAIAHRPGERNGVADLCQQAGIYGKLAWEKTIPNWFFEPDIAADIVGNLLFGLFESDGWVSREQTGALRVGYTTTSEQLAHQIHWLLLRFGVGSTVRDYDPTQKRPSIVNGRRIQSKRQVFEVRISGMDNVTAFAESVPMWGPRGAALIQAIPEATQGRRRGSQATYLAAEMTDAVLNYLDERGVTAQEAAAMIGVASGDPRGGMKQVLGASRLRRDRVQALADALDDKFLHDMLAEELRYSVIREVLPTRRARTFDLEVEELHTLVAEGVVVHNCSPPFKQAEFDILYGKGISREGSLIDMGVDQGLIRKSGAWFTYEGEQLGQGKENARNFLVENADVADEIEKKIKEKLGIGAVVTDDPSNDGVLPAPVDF

[27] = target: T6, Replicative DNA helicase DnaB (Mycobacterium tuberculosis, UniProt P9WMR3); experiment: DnaB intein splicing inhibitors, dose response, biochemical, cell-free fluorescence (AID 449749); format: functional
T6 sequence (P9WMR3 whole entry): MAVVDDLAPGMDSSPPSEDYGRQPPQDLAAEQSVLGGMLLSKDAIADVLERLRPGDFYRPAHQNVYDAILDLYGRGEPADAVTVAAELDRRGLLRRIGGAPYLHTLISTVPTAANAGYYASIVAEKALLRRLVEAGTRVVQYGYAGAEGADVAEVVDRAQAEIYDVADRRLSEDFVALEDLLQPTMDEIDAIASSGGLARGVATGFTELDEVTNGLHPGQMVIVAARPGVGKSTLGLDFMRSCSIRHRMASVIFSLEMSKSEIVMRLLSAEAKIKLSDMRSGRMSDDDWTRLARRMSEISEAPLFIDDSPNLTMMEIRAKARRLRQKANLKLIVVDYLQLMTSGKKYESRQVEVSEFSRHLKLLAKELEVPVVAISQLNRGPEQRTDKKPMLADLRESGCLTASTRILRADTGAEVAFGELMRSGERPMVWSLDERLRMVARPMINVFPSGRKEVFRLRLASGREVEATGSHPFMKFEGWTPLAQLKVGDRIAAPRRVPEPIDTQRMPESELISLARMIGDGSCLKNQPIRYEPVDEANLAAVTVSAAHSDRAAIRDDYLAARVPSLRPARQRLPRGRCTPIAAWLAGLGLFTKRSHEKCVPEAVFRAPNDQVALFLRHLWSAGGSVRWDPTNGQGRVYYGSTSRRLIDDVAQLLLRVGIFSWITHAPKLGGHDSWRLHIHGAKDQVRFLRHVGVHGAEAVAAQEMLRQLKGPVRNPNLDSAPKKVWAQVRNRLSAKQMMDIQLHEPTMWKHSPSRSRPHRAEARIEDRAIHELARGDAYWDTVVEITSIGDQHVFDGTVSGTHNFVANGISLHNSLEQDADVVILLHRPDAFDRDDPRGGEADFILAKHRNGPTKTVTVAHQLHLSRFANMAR

[28] = target: CAAX prenyl protease 2 (Saccharomyces cerevisiae S288c, UniProt Q03530); format: biochemical
Chain of CAAX prenyl protease 2 (Q03530 whole entry): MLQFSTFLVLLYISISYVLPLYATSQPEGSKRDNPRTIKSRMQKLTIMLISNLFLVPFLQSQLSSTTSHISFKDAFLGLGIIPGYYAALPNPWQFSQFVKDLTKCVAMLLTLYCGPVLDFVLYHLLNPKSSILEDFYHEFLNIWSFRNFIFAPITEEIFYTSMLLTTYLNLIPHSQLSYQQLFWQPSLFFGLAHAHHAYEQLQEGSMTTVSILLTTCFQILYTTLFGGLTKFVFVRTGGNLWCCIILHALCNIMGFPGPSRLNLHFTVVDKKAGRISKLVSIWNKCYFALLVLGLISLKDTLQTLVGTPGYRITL

Compound: Oc1ccc(Cl)cc1C1=NNC(c2cccs2)C1 (configuration not stated)
- CC50 [1]: > 20 µM (active)
- IC50 [2]: 44.6 µM (active)
- CC50 [3]: 22.6 µM (active)
- CC50 [4]: > 20 µM (active)

Compound: c1ccc(C[C@H]2CNCCN2CCCCC2CCCCC2)cc1
- AC50 [5]: 7.01 µM (active)
- CC50 [1]: 12.2 µM (active)
- IC50 [2]: 27.4 µM (active)
- CC50 [3]: 13.9 µM (active)
- IC50 [6]: > 20 µM (inactive)
- CC50 [4]: 18.1 µM (active)

Compound: COc1cc2c(cc1NC(=O)c1cc(-c3cccnc3)nc3ccc(C)cc13)oc1ccccc12
- AC50 [7]: 2.51 µM (inconclusive)
- EC50 [8]: > 100 µM (inactive)

Compound: CCOC(=O)/C(=C\c1ccccc1)C(=O)c1cc(C(C)=O)c(Nc2ccccc2)s1
- EC50 [9]: 1.06 µM (active)
- EC50 [10]: 6.8 µM (active)
- IC50 [11]: > 25 µM (active)
- CC50 [12]: 14.8 µM (active)
- EC50 [13]: 20.3 µM (active)
- AC50 [14]: 5.42 µM (active)
- EC50 [15]: < 0.2 µM (active)
- EC50 [16]: 2.35 µM (active)

Compound: Cc1ccc(N2C(=O)NC(=O)/C(=C\C=C\c3ccco3)C2=O)cc1C
- IC50 [17]: 14.4 µM (not active)
- IC50 [18]: 16.4 µM (active)
- Absolute IC50 (CHOP) [19]: 10 µM
- AC50 [14]: 4.83 µM (active)
- CC50 [20]: > 50 µM (active)
- EC50 [21]: 4.85 µM (active)

Compound: COC(=O)c1cc(-c2ccc(Cl)c(Cl)c2Cl)n[nH]1
- IC50 [22]: 0.24 µM (active)
- IC50 [23]: > 10 µM (inconclusive)

Compound: O=c1s[nH]c2ccccc12
- IC50 [24]: > 25 µM (inactive)

Compound: CCc1nc(NCC(C)C)c(C#N)c2c1COC(C)(C)C2
- Absolute IC50 (CHOP) [19]: 10 µM
- Absolute IC50 (XBP1) [25]: 10 µM

Compound: CCOC(=O)c1c(NC(=S)N2CCCCC2)sc2c1CCN(C(=O)OCC)C2
- EC50 [9]: 5.41 µM (active)
- EC50 [26]: 12.7 µM (active)
- EC50 [21]: 12.3 µM (active)
- AC50 [27]: 3.64 µM (active)

Compound: COc1ccc(C(=O)O)c(NC(=O)c2ccc(Cl)cc2)c1
- IC50 [24]: > 25 µM (inactive)

Compound: O=C(O)CCc1ccc(-c2cccs2)n1Cc1ccco1
- AC50 [28]: 2.57 µM (active)
